In patent US8933016B2, “Metallodrugs having improved pharmacological properties and methods of manufacture and use thereof” (priority 2012, dated 2015):
In brackets after ≈: the same amount, converted by molar mass. Ends that are not written are not given here. Peptide text beside a SMILES is read from it. * marks the point of attachment. X4 = COCCOCCOCCOCCOCCOCCOCCOCCOCCOCCOCCOCCOCCOCCOCCOCCOCCOCCOCCOCCOCCOCCOCCOCCOCCOCCOCCOCCOCCOCCOCCOCCOCCOCCOCCOCCOCCOCCOCCOCCOCCOCCOCCOCCOCCOCCOCCOCCNC(=O)CCN1C(=O)CC(*)C1=O; X3 = COCCOCCOCCOCCOCCOCCOCCOCCOCCOCCOCCOCCOCCOCCOCCOCCOCCOCCOCCOCCOCCOCCOCCOCCOCCOCCOCCOCCOCCOCCOCCOCCOCCOCCOCCOCCNC(=O)CCN1C(=O)CC(*)C1=O; X2 = COCCOCCOCCOCCOCCOCCOCCOCCOCCOCCOCCOCCOCCOCCOCCOCCOCCOCCOCCOCCOCCOCCOCCOCCNC(=O)CCN1C(=O)CC(*)C1=O; X1 = COCCOCCOCCOCCOCCOCCOCCOCCOCCOCCOCCOCCNC(=O)CCN1C(=O)CC(*)C1=O

Tests used:
pUC19 plasmid DNA = assay: Plasmid DNA cleavage by reactive oxygen species; type: biochemical; conditions: 10 μM base pair pUC19, 100 nM M-chelate, 1 mM H2O2, 1 mM ascorbate, pH 7.4
[1] = test system: E. coli O157:H7, BAA-1883 (Ec F); conditions: O157:H7
[2] = test system: K. pneumonia, 700603 (Kp); type: cell-based; conditions: Mueller Hinton Broth
[3] = test system: S. pneumoniae, 49619 (Sp); conditions: 49619 (Sp)
[4] = test system: A. baumanii, BAA-747 (Ab); conditions: BAA-747
E. coli, 25922 (Ec) = conditions: 25922 (Ec)
[5] = Cytotoxicity toward human Huh7 liver cells
[6] = test system: Gram+ & Gram−, Fungi, Virus, Parasites, Protozoan, HIV, Cancer cells; conditions: Antimicrobial Peptide Database; cited from earlier work

O=C([O-])CN1CCN(CC(=O)O)CCN(CC(=O)[O-])CCN(CC(=O)O)CC1.[Cu+2] [Cu-DOTA]
Linear (μM bp) (pUC19 plasmid DNA): 0.09 μM bp | Nicked (μM bp) (pUC19 plasmid DNA): 1.31 μM bp | Supercoiled (μM bp) (pUC19 plasmid DNA): 8.59 μM bp

O=C([O-])CN(CCN(CC(=O)[O-])CC(=O)[O-])CC(=O)[O-].[Fe+3] [Fe-EDTA]
Linear (μM bp) (pUC19 plasmid DNA): 0.30 μM bp | Nicked (μM bp) (pUC19 plasmid DNA): 2.44 μM bp | Supercoiled (μM bp) (pUC19 plasmid DNA): 7.26 μM bp

NCC(=O)NCC(=O)N[C@@H](Cc1c[nH]cn1)C(=O)N1CCN(c2cc3c(cc2F)c(=O)c(C(=O)O)cn3C2CC2)CC1 [GGH CIPRO]
MIC Ec F [1]: 8 µM (≈ 4.66 µg/mL)

CC(C)C[C@H](NC(=O)[C@H](CCCNC(=N)N)NC(=O)[C@H](CCC(N)=O)NC(=O)[C@H](CCCCN)NC(=O)[C@@H](NC(=O)[C@H](CCCCN)NC(=O)[C@H](CCCNC(=N)N)NC(=O)[C@H](CC(C)C)NC(=O)[C@H](CC(N)=O)NC(=O)[C@H](Cc1ccccc1)NC(=O)[C@H](Cc1ccccc1)NC(=O)[C@H](CC(C)C)NC(=O)[C@H](CCCCN)NC(=O)[C@H](CCCNC(=N)N)NC(=O)[C@H](CCC(N)=O)NC(=O)CNC(=O)[C@H](Cc1c[nH]cn1)NC(=O)CNC(=O)CN)[C@@H](C)O)C(=O)NCC(=O)N[C@@H](Cc1c[nH]c2ccccc12)C(=O)N[C@@H](Cc1ccccc1)C(=O)N[C@@H](CC(N)=O)C(=O)N[C@@H](CCC(N)=O)C(=O)N[C@@H](CS)C(=O)O [PEP 192]
MIC Kp [2]: 5.3 µM (≈ 16 µg/mL)

CC[C@H](C)[C@H](NC(=O)[C@H](CCCCN)NC(=O)[C@H](Cc1c[nH]c2ccccc12)NC(=O)[C@H](CCCNC(=N)N)NC(=O)[C@H](CCCNC(=N)N)NC(=O)[C@H](Cc1c[nH]cn1)NC(=O)CNC(=O)CN)C(=O)N[C@H](C(=O)N[C@H](C(=O)N[C@H](C(=O)N[C@@H](CCCNC(=N)N)C(=O)N[C@@H](Cc1c[nH]c2ccccc12)C(=O)N[C@@H](CCCNC(=N)N)C(=O)N[C@@H](CCCNC(=N)N)C(=O)NCC(=O)NCC(=O)N[C@@H](CSC1CC(=O)N(CCC(=O)NCCOCCOCCOCCOCCOCCOCCOCCOCCOCCOCCOCCOC)C1=O)C(=O)O)[C@@H](C)CC)C(C)C)C(C)C (stereo partly drawn) [PEP 314 PEG 12] (H-GGHRRWKIVVIRWRRGGC(X1)-OH; C-terminus assumed)
MIC Sp [3]: 11 µM (≈ 31.9 µg/mL) | MIC Ab [4]: 2.7 µM (≈ 7.84 µg/mL) | MIC Ec (E. coli, 25922 (Ec)): 11 µM (≈ 31.9 µg/mL) | MIC Ec F [1]: 11 µM (≈ 31.9 µg/mL)

CC[C@H](C)[C@H](NC(=O)[C@H](CCCCN)NC(=O)[C@H](Cc1c[nH]c2ccccc12)NC(=O)[C@H](CCCNC(=N)N)NC(=O)[C@H](CCCNC(=N)N)NC(=O)[C@H](Cc1c[nH]cn1)NC(=O)CNC(=O)CN)C(=O)N[C@H](C(=O)N[C@H](C(=O)N[C@H](C(=O)N[C@@H](CCCNC(=N)N)C(=O)N[C@@H](Cc1c[nH]c2ccccc12)C(=O)N[C@@H](CCCNC(=N)N)C(=O)N[C@@H](CCCNC(=N)N)C(=O)NCC(=O)NCC(=O)N[C@@H](CSC1CC(=O)N(CCC(=O)NCCOCCOCCOCCOCCOCCOCCOCCOCCOCCOCCOCCOCCOCCOCCOCCOCCOCCOCCOCCOCCOCCOCCOCCOCCOCCOCCOCCOCCOCCOCCOCCOCCOCCOCCOCCOC)C1=O)C(=O)O)[C@@H](C)CC)C(C)C)C(C)C (stereo partly drawn) [PEP 314 PEG 36] (H-GGHRRWKIVVIRWRRGGC(X3)-OH; C-terminus assumed)
MIC Sp [3]: 8.1 µM (≈ 32.1 µg/mL) | IC50 [5]: > 200 µM

CC[C@H](C)[C@H](NC(=O)[C@H](Cc1c[nH]cn1)NC(=O)CNC(=O)CN)C(=O)N[C@@H](CCCNC(=N)N)C(=O)N[C@@H](CCCNC(=N)N)C(=O)N[C@H](C(=O)N[C@H](C(=O)N[C@@H](CCCNC(=N)N)C(=O)N[C@@H](CCCCN)C(=O)N[C@H](C(=O)N[C@H](C(=O)N[C@@H](Cc1c[nH]cn1)C(=O)N[C@H](C(=O)N[C@H](C(=O)N[C@@H](CCCCN)C(=O)N[C@@H](CCCCN)C(=O)NCC(=O)NCC(=O)N[C@@H](CSC1CC(=O)N(CCC(=O)NCCOCCOCCOCCOCCOCCOCCOCCOCCOCCOCCOCCOCCOCCOCCOCCOCCOCCOCCOCCOCCOCCOCCOCCOC)C1=O)C(=O)O)[C@@H](C)CC)[C@@H](C)CC)[C@@H](C)CC)[C@@H](C)CC)[C@@H](C)CC)[C@@H](C)CC (stereo partly drawn) [PEP 318 PEG 24] (H-GGHIRRIIRKIIHIIKKGGC(X2)-OH; C-terminus assumed)
MIC Ab [4]: 9.1 µM (≈ 31.9 µg/mL) | MIC Ec (E. coli, 25922 (Ec)): 9.1 µM (≈ 31.9 µg/mL) | MIC Ec F [1]: 18.2 µM (≈ 63.9 µg/mL) | IC50 [5]: > 200 µM

CC[C@H](C)[C@H](NC(=O)[C@H](Cc1c[nH]cn1)NC(=O)CNC(=O)CN)C(=O)N[C@@H](CCCNC(=N)N)C(=O)N[C@@H](CCCNC(=N)N)C(=O)N[C@H](C(=O)N[C@H](C(=O)N[C@@H](CCCNC(=N)N)C(=O)N[C@@H](CCCCN)C(=O)N[C@H](C(=O)N[C@H](C(=O)N[C@@H](Cc1c[nH]cn1)C(=O)N[C@H](C(=O)N[C@H](C(=O)N[C@@H](CCCCN)C(=O)N[C@@H](CCCCN)C(=O)NCC(=O)NCC(=O)N[C@@H](CSC1CC(=O)N(CCC(=O)NCCOCCOCCOCCOCCOCCOCCOCCOCCOCCOCCOCCOCCOCCOCCOCCOCCOCCOCCOCCOCCOCCOCCOCCOCCOCCOCCOCCOCCOCCOCCOCCOCCOCCOCCOCCOC)C1=O)C(=O)O)[C@@H](C)CC)[C@@H](C)CC)[C@@H](C)CC)[C@@H](C)CC)[C@@H](C)CC)[C@@H](C)CC (stereo partly drawn) [PEP 318 PEG 36] (H-GGHIRRIIRKIIHIIKKGGC(X3)-OH; C-terminus assumed)
MIC Ab [4]: 7.9 µM (≈ 31.9 µg/mL) | MIC Ec (E. coli, 25922 (Ec)): 15.8 µM (≈ 63.8 µg/mL) | MIC Ec F [1]: 15.8 µM (≈ 63.8 µg/mL) | IC50 [5]: > 200 µM

CC[C@H](C)[C@H](NC(=O)[C@H](Cc1c[nH]cn1)NC(=O)CNC(=O)CN)C(=O)N[C@@H](CCCNC(=N)N)C(=O)N[C@@H](CCCNC(=N)N)C(=O)N[C@H](C(=O)N[C@H](C(=O)N[C@@H](CCCNC(=N)N)C(=O)N[C@@H](CCCCN)C(=O)N[C@H](C(=O)N[C@H](C(=O)N[C@@H](Cc1c[nH]cn1)C(=O)N[C@H](C(=O)N[C@H](C(=O)N[C@@H](CCCCN)C(=O)N[C@@H](CCCCN)C(=O)NCC(=O)NCC(=O)N[C@@H](CSC1CC(=O)N(CCC(=O)NCCOCCOCCOCCOCCOCCOCCOCCOCCOCCOCCOCCOCCOCCOCCOCCOCCOCCOCCOCCOCCOCCOCCOCCOCCOCCOCCOCCOCCOCCOCCOCCOCCOCCOCCOCCOCCOCCOCCOCCOCCOCCOCCOCCOCCOCCOCCOCCOC)C1=O)C(=O)O)[C@@H](C)CC)[C@@H](C)CC)[C@@H](C)CC)[C@@H](C)CC)[C@@H](C)CC)[C@@H](C)CC (stereo partly drawn) [PEP 318 PEG 48] (H-GGHIRRIIRKIIHIIKKGGC(X4)-OH; C-terminus assumed)
MIC Ab [4]: 13.9 µM (≈ 63.5 µg/mL) | IC50 [5]: > 200 µM

CC/C(=C(\c1ccccc1)c1ccc(OCCN(C)C)cc1)c1ccccc1 [Tamoxifen, reference compound]
IC50 [5]: 42 µM

Cu-GGHC-Amik fr3: copper complex of GGHC-Amikacin, fraction 3 (also: copper complex, amikacin conjugate, site not given here)
Linear (μM bp) (pUC19 plasmid DNA): 0.04 μM bp | Nicked (μM bp) (pUC19 plasmid DNA): 6.46 μM bp | Supercoiled (μM bp) (pUC19 plasmid DNA): 3.50 μM bp

FVQWFSKFLGRILGGC [SEQ ID NO: 63]
activity against organisms [6]: active against Gram+ & Gram−, Virus, Parasites, Protozoan

GGHGIRRIIRKIIHIIKK-NH2 (C-terminus assumed) [PEP 188, GGHGIRRIIRKIIHIIKK]
MIC Kp [2]: 1.9 µM

GGHGVRRFPWWWPFLRR [PEP 189, GGHGVRRFPWWWPFLRR]
MIC Kp [2]: 7.2 µM

GIGKFLHSAGKFGKAFVGEIMKS [SEQ ID NO: 57]
activity against organisms [6]: active against Gram+ & Gram−, Virus, Fungi, Parasites, Protozoan, HIV

GILAWKWAWWAWRR [SEQ ID NO: 55]
activity against organisms [6]: active against Gram+ & Gram−, Fungi, Virus, HIV

GILAWKWAWWAWRRGGC [SEQ ID NO: 61]
activity against organisms [6]: active against Gram+ & Gram−, Fungi, Virus, HIV

GIRRIIRKIIHIIKK [SEQ ID NO: 53]
activity against organisms [6]: active against Gram+ & Gram−, Fungi

GIRRIIRKIIHIIKKGGC [SEQ ID NO: 59]
activity against organisms [6]: active against Gram+ & Gram−, Fungi GVR

GRLARIVVIRVAR [SEQ ID NO: 56]
activity against organisms [6]: active against Gram+ & Gram−

GRRWKIVVIRWRRGGC [SEQ ID NO: 67]
activity against organisms [6]: active against Gram+ & Gram−

GVRRFPWWWPFLRR [SEQ ID NO: 54]
activity against organisms [6]: active against Gram+ & Gram−, Fungi

ILPWKWPWWPWRRGGC [SEQ ID NO: 64]
activity against organisms [6]: active against Gram+ & Gram−, Fungi, Virus, HIV

IRRIIRKIIHIIKKGGC [SEQ ID NO: 65]
activity against organisms [6]: active against Gram+ & Gram−, Fungi

RFPWWWPFLRRGGC [SEQ ID NO: 60]
activity against organisms [6]: active against Gram+ & Gram−, Fungi

RRWKIVVIRWRRGGC [SEQ ID NO: 62]
activity against organisms [6]: active against Gram+ & Gram−

VDKGSYLPRPTPPRPIYNRN [SEQ ID NO: 58]
activity against organisms [6]: active against Gram+ & Gram−

VRRFPWWWPFLRRGGC [SEQ ID NO: 66]
activity against organisms [6]: active against Gram+ & Gram−, Fungi
